Reference: patent EP0017970A1, “Novel beta-lactam derivatives and process for production thereof” (SANRAKU-OCEAN CO., LTD., priority 1979, dated 1980)
In brackets after ≈: the same amount, converted by molar mass. Where a name gives a salt, the structure may show the parent alone.

What was measured:
[1] = tested on: Comamonas terrigena B-996; assay: MIC, agar dilution assay; type: cell-based; details: 35°C for 20 hours; for MIC: Comamonas terrigena, B996, 20 h, read-out: Antibiotic Activity minimum inhibitory concentration
Method: (§1) The antibiotic activities shown in Tables 1-1 to 1-9 above were determined in the following manner. The minimum inhibitory concentrations of the compounds of formula (VI-b) in Tables I-1 to 1-8 and the known compounds in Table 1-9 on the various microorganisms shown in the above tables were measured by an agar dilution assay method using a brain heart infusion agar medium "Difco" (a product of Difco Laboratories Inc.). A sample of the test compound was dissolved in sterile distilled water and diluted to prepare a twofold dilution series of the compound solution. In a betri dish of 9 cm in diameter, 1 ml of the compound solution was added to 9 ml of a molten sterile heart infusion agar medium (Difco Laboratories Inc.) at. about 60°C to prepare an agar plate containing the compound. An overnight culture of each test organism indicated in the above table, which was prepared by stationary cultivation in trypto-soy broth (Eiken Chemi. Co., Ltd.) at 35°C for 18 to 20 hours, was diluted with the trypto-soy broth to give approximately 10^8 cells/ml and the diluted inoculum was inoculated in the agar plate. After cultivating the plate at 35°C for 20 hours, the growth of the organism was observed. The minimum concentration of the compound at which no growth of the microorganism was noted was determined, and defined as the minimum inhibitory concentration of the test compound.

[2] = tested on: Staphylococcus epidermidis; assay: MIC, agar dilution assay; type: cell-based; details: 35°C for 20 hours; for MIC: 20 h, read-out: Antibiotic Activity minimum inhibitory concentration
Method: as §1

Proteus sp. P22 = assay: MIC, agar dilution assay; type: cell-based; details: 35°C for 20 hours, read-out: Antibiotic Activity minimum inhibitory concentration
Method: as §1

[3] = tested on: Staphylococcus aureus FDA 209P; assay: MIC, agar dilution assay; type: cell-based; details: 35°C for 20 hours; for MIC: Staphylococcus aureus, FDA209P, 20 h, read-out: Antibiotic Activity minimum inhibitory concentration
Method: as §1

[4] = tested on: Pseudomonas aeruginosa NCTC10490; assay: MIC, agar dilution assay; type: cell-based; details: 35°C for 20 hours, read-out: Antibiotic Activity minimum inhibitory concentration
Method: as §1

Serratia marcescens T55 = assay: MIC, agar dilution assay; type: cell-based; details: 35°C for 20 hours; for MIC: Serratia marcescens, T55, 20 h, read-out: Antibiotic Activity minimum inhibitory concentration
Method: as §1

[5] = tested on: Bacillus subtilis ATCC 6633; assay: MIC, agar dilution assay; type: cell-based; details: 35°C for 20 hours; for MIC: Bacillus subtilis, ATCC6633, 20 h, read-out: Antibiotic Activity minimum inhibitory concentration
Method: as §1

Proteus rettgeri P7 = assay: MIC, agar dilution assay; type: cell-based; details: 35°C for 20 hours; for MIC: Providencia rettgeri, P7, 20 h, read-out: Antibiotic Activity minimum inhibitory concentration
Method: as §1

[6] = tested on: Pseudomonas aeruginosa IFO3445; assay: MIC, agar dilution assay; type: cell-based; details: 35°C for 20 hours, read-out: Antibiotic Activity minimum inhibitory concentration
Method: as §1

Alcaligenes faecalis A 1 = assay: MIC, agar dilution assay; type: cell-based; details: 35°C for 20 hours; for MIC: Alcaligenes faecalis, A1, 20 h, read-out: Antibiotic Activity minimum inhibitory concentration
Method: as §1

Enterobacter sp. E8 = assay: MIC, agar dilution assay; type: cell-based; details: 35°C for 20 hours; for MIC: Enterobacter, SP.E8, 20 h, read-out: Antibiotic Activity minimum inhibitory concentration
Method: as §1

[7] = tested on: Enterobacter aerogenes E19; assay: MIC, agar dilution assay; type: cell-based; details: 35°C for 20 hours; for MIC: Klebsiella aerogenes, E19, 20 h, read-out: Antibiotic Activity minimum inhibitory concentration
Method: as §1

[8] = tested on: Staphylococcus aureus Smith; assay: MIC, agar dilution assay; type: cell-based; details: 35°C for 20 hours; for MIC: Staphylococcus aureus, 20 h, read-out: Antibiotic Activity minimum inhibitory concentration
Method: as §1

[9] = tested on: Klebsiella pneumoniae K-13; assay: MIC, agar dilution assay; type: cell-based; details: K13, 35°C for 20 hours, read-out: Antibiotic Activity minimum inhibitory concentration
Method: as §1

Providencia sp. P8 = assay: MIC, agar dilution assay; type: cell-based; details: 35°C for 20 hours; for MIC: Providencia, SP.P8, 20 h, read-out: Antibiotic Activity minimum inhibitory concentration
Method: as §1

Escherichia coli K-12 = assay: MIC, agar dilution assay; type: cell-based; details: 35°C for 20 hours; for MIC: Escherichia coli, K12, 20 h, read-out: Antibiotic Activity minimum inhibitory concentration
Method: as §1

Proteus vulgaris GN76 = assay: MIC, agar dilution assay; type: cell-based; details: 35°C for 20 hours, read-out: Antibiotic Activity minimum inhibitory concentration
Method: as §1

Sarcina lutea = assay: MIC, agar dilution assay; type: cell-based; details: 35°C for 20 hours; for MIC: Micrococcus luteus, 20 h, read-out: Antibiotic Activity minimum inhibitory concentration
Method: as §1

Serratia marcescens S18 = assay: MIC, agar dilution assay; type: cell-based; details: 35°C for 20 hours; for MIC: Serratia marcescens, S18, 20 h, read-out: Antibiotic Activity minimum inhibitory concentration
Method: as §1

[10] = tested on: Staphylococcus aureus Russell; assay: MIC, agar dilution assay; type: cell-based; details: 35°C for 20 hours; for MIC: Staphylococcus aureus, 20 h, read-out: Antibiotic Activity minimum inhibitory concentration
Method: as §1

[11] = Reaction with hydroxylamine, loss of UV absorbance; type: physicochemical; details: about 20 µg/ml, hydroxylamine 10 mM, pH 7.5, 22°C for 30 minutes
Method: An aqueous solution of hydroxylamine having a pH of 7.5 is added to a solution of the above substance in deionized water so that the concentration of the antibiotic PS-3 to about 20 µg/ml and the concentration of hydroxylamine to 10 mM. When the mixed solution is allowed to stand at 22°C for 30 minutes, about 93% of its absorbance at 300.0 nm disappears.

[12] = Solubility (physical and chemical properties); type: physicochemical
Method: The resulting powder was dissolved in 1 ml of a phosphate buffer (M/100, pH 8.4), and charged onto a column (1.1 x 90 cm) of Sephadex G-10 (a product of Pharmacia Fine Chemicals, Co.), and developed with the same buffer. The active fractions were collected by measuring their ultraviolet absorptions (λ300 nm). These fractions were adsorbed to a column (1.1 x 20 cm) of QAE Sephadex A-25 equilibrated with phosphate buffer (M/100, pH 8.4), and the column was eluted with 200 ml of phosphate buffer (M/100, pH 8.4) having a sodium chloride concentration linearly varying from 0 to O.lM by a concentration gradient method. The ultraviolet absorption (X300 nm) of each of the fractions was measured, and the active fractions were collected. Sodium chloride was added to the active fractions so that the concentration of sodium chloride reached 3% (w/v). The mixture was adsorbed to a column (1.1 x 20 cm) of Diaion HP-20AG (200 - 400 mesh), and eluted with water. The eluates were lyophilized to afford 5 mg of the sodium salt of PS-3 as a white dry powder. The physical and chemical properties of the product were as follows: • 1) Color Colorless • 2) Solubility

Proteus mirabilis P6 = assay: MIC, agar dilution assay; type: cell-based; details: P6, 20 h, 35°C for 20 hours, read-out: Antibiotic Activity minimum inhibitory concentration
Method: as §1

Enterobacter cloacae 45 = assay: MIC, agar dilution assay; type: cell-based; details: Enterobacter cloacae, 45, 20 h, 35°C for 20 hours, read-out: Antibiotic Activity minimum inhibitory concentration
Method: as §1

Escherichia coli RGN 823 = assay: MIC, agar dilution assay; type: cell-based; details: RGN823, 20 h, 35°C for 20 hours, read-out: Antibiotic Activity minimum inhibitory concentration
Method: as §1

[13] = tested on: Citrobacter freundii GN 346; assay: MIC, agar dilution assay; type: cell-based; details: GN346, 20 h, 35°C for 20 hours, read-out: Antibiotic Activity minimum inhibitory concentration
Method: as §1

SMILES	MIC [1] [µg/mL]	MIC (Proteus sp. P22) [µg/mL]	MIC [4] [µg/mL]	MIC [6] [µg/mL]	MIC [9] [µg/mL]	MIC (Proteus vulgaris GN76) [µg/mL]	MIC (Serratia marcescens S18) [µg/mL]	MIC (Proteus mirabilis P6) [µg/mL]	MIC [2] [µg/mL]	MIC [3] [µg/mL]	MIC (Serratia marcescens T55) [µg/mL]	MIC (Enterobacter cloacae 45) [µg/mL]	MIC [5] [µg/mL]	MIC (Proteus rettgeri P7) [µg/mL]	MIC (Escherichia coli RGN 823) [µg/mL]	MIC (Alcaligenes faecalis A 1) [µg/mL]	MIC [13] [µg/mL]	MIC (Enterobacter sp. E8) [µg/mL]	MIC [7] [µg/mL]	MIC [8] [µg/mL]	also measured
CC(O)[C@H]1C(=O)N2C(C(=O)O)=C(Sc3ccncc3)C[C@H]12 (relative stereo) [Table I-1 R1=-OH*]	0.013 (≈ 0.0424 µM)	50 (≈ 163 µM)	1.56 (≈ 5.09 µM)	1.56 (≈ 5.09 µM)	25 (≈ 81.6 µM)	50 (≈ 163 µM)	100 (≈ 326 µM)														Antibiotic Activity minimum inhibitory concentration [1]: <0.007 µg/mL; Antibiotic Activity minimum inhibitory concentration [2]: <0.007 µg/mL; Antibiotic Activity minimum inhibitory concentration [3]: <0.007 µg/mL; Antibiotic Activity minimum inhibitory concentration (Serratia marcescens T55): 25 µg/mL; Antibiotic Activity minimum inhibitory concentration [5]: <0.007 µg/mL; Antibiotic Activity minimum inhibitory concentration (Proteus rettgeri P7): 0.78 µg/mL; Antibiotic Activity minimum inhibitory concentration (Alcaligenes faecalis A 1): <0.007 µg/mL; Antibiotic Activity minimum inhibitory concentration (Enterobacter sp. E8): 0.025 µg/mL; Antibiotic Activity minimum inhibitory concentration [7]: 1.56 µg/mL; Antibiotic Activity minimum inhibitory concentration [8]: <0.007 µg/mL; Antibiotic Activity minimum inhibitory concentration (Providencia sp. P8): 0.20 µg/mL; Antibiotic Activity minimum inhibitory concentration (Escherichia coli K-12): 0.05 µg/mL; Antibiotic Activity minimum inhibitory concentration (Sarcina lutea): <0.007 µg/mL; Antibiotic Activity minimum inhibitory concentration (Serratia marcescens S18): 50 µg/mL; Antibiotic Activity minimum inhibitory concentration [10]: <0.007 µg/mL
CC(=O)NCCSC1=C(C(=O)O)N2C(=O)C(C(C)O)C2C1 (stereo not shown) [PS-3 sodium salt, 3-(2-acetamidoethylthio)-6-(1-hydroxyethyl)-7-oxo-1-azabicyclo[3.2.0]hept-2-ene-2-carboxylic acid]																					absorbance at 300.0 nm that disappears [11]: about 93%; Solubility ([12]; in acetone): substantially insoluble; Solubility ([12]; in water): Readily soluble
CC(C)C1C(=O)N2C(C(=O)O)=C(Sc3ccncc3)CC12 (stereo not shown) [Table I-1 R1=-CH3]	0.007 (≈ 0.023 µM)	50 (≈ 164 µM)	1.56 (≈ 5.13 µM)	1.56 (≈ 5.13 µM)	25 (≈ 82.1 µM)	50 (≈ 164 µM)	50 (≈ 164 µM)	3.13 (≈ 10.3 µM)	0.013 (≈ 0.0427 µM)	0.007 (≈ 0.023 µM)	100 (≈ 329 µM)	50 (≈ 164 µM)	0.013 (≈ 0.0427 µM)	1.56 (≈ 5.13 µM)	12.5 (≈ 41.1 µM)	0.013 (≈ 0.0427 µM)	50 (≈ 164 µM)	1.56 (≈ 5.13 µM)	12.5 (≈ 41.1 µM)	0.013 (≈ 0.0427 µM)	MIC (Providencia sp. P8): 3.13 µg/mL (≈ 10.3 µM); MIC (Escherichia coli K-12): 3.13 µg/mL (≈ 10.3 µM); MIC (Sarcina lutea): 0.013 µg/mL (≈ 0.0427 µM); MIC [10]: 0.013 µg/mL (≈ 0.0427 µM)
CCC1C(=O)N2C(C(=O)O)=C(Sc3ccncc3)CC12 (stereo not shown) [Table I-1 R1=H]	< 0.007	29.5 (≈ 102 µM)	0.92 (≈ 3.17 µM)	0.92 (≈ 3.17 µM)	14.8 (≈ 51 µM)	29.5 (≈ 102 µM)	29.5 (≈ 102 µM)	1.8 (≈ 6.2 µM)	< 0.007	< 0.007	29.5 (≈ 102 µM)	29.5 (≈ 102 µM)	< 0.007	1.8 (≈ 6.2 µM)	14.8 (≈ 51 µM)	< 0.007	29.5 (≈ 102 µM)	0.46 (≈ 1.58 µM)	7.4 (≈ 25.5 µM)	< 0.007	MIC (Providencia sp. P8): 0.92 µg/mL (≈ 3.17 µM); MIC (Escherichia coli K-12): 0.92 µg/mL (≈ 3.17 µM); MIC (Sarcina lutea): < 0.007 µg/mL; MIC [10]: < 0.007 µg/mL
